# In patent US12168671B2, “Phosphohistidine mimetics and antibodies to same” (The Trustees of Princeton University, priority 2013, dated 2024):
# Assay: second pKa from 31P shift
# Format: physicochemical
# Source text: This means that both the pPye and pHis have the same charge state at physiological pH. Since the pKa2 of pHis is […], both of the phosphate group oxygen atoms in pHis will be depronated. For pPye, the doubly deprotonated state will be favored at physiological pH (pH 7.4), well mimicking pHis.
smiles,measurement,value
NCCn1cc(P(=O)(O)O)cn1 [pPye],pKa,~6.7
